One assay concerns ADP induced platelet aggregation. The assay can be described thus: Light transmission platelet aggregation assay. In kind it is cell-based. The following applies: human platelet-rich plasma; ADP at 1-5 μM final concentration; 2 minutes preincubation at 37° C. On the procedure: After obtaining informed consent, blood was obtained by vein puncture from healthy volunteers using a thrombin inhibitor as the anticoagulant. Platelet-rich plasma (PRP) was removed after centrifugation at 20° C. for 10 minutes at 200 g and allowed to equilibrate at 37° C. Part of the blood was centrifuged for 10 minutes at 5000 g to yield platelet poor plasma (PPP).
Light transmission platelet aggregation was carried out according to the method of Born & Cross (G. V. R. Born and M. J. Cross, J. Physiol. (1963), 168, 178-195) using a Chronolog lumiaggregometer with stirring (1000 rpm) at 37° C. PRP was placed into the cuvette and allowed to equilibrate at 37° C. for two minutes. In a first phase, the ADP concentration to give optimal extent of aggregation was determined for the PRP of each donor. In a second phase, PRP was incubated with inhibitors for 2 minutes at 37° C. prior to the addition of the agonist ADP at 1-5 μM final concentration. The change in light transmission, indicative of ongoing aggregation, was monitored during 5 minutes. The extent of platelet aggregation was calculated relative to light absorbance of PRP (not aggregated) and PPP (full aggregation).
What is called IC50 is the concentration that gives 50% inhibition. In turn, `CCOC(=O)N1CCN(C(=O)[C@H](CP(=O)(O)O)NC(=O)c2cc(N3CC[C@H](OC)C3)nc(-c3ccccc3)n2)CC1` [Example 1, 4-((R)-2-{[6-((S)-3-methoxy-pyrrolidin-1-yl)-2-phenyl-pyrimidine-4-carbonyl]-amino}-3-phosphono-propionyl)-piperazine-1-carboxylic acid ethyl ester] showed an IC50 of 10 nM.

`CCCCOC(=O)N1CCN(C(=O)[C@H](CP(=O)(O)O)NC(=O)c2cc(N3CC[C@H](OC)C3)nc(-c3ccccc3)n2)CC1` [Example 2, 4-((R)-2-{[6-((S)-3-methoxy-pyrrolidin-1-yl)-2-phenyl-pyrimidine-4-carbonyl]-amino}-3-phosphono-propionyl)-piperazine-1-carboxylic acid butyl ester] displayed an IC50 of 8 nM.

The molecule `CCOC(=O)N1CCN(C(=O)[C@H](CCP(=O)(O)O)NC(=O)c2cc(N3CC[C@H](OC)C3)nc(-c3ccccc3)n2)CC1` [Example 4, 4-((S)-2-{[6-((S)-3-methoxy-pyrrolidin-1-yl)-2-phenyl-pyrimidine-4-carbonyl]-amino}-4-phosphono-butyryl)-piperazine-1-carboxylic acid ethyl ester] yielded an IC50 of 21 nM.

The molecule `CCCCOC(=O)N1CCN(C(=O)[C@H](CCP(=O)(O)O)NC(=O)c2cc(N3CC[C@H](OC)C3)nc(-c3ccccc3)n2)CC1` [Example 5, 4-((S)-2-{[6-((S)-3-methoxy-pyrrolidin-1-yl)-2-phenyl-pyrimidine-4-carbonyl]-amino}-4-phosphono-butyryl)-piperazine-1-carboxylic acid butyl ester] showed an IC50 of 1 nM.

`CCOC(=O)N1CCN(C(=O)[C@H](Cc2ccc(P(=O)(O)O)cc2)NC(=O)c2cc(N3CC[C@H](OC)C3)nc(-c3ccccc3)n2)CC1` [Example 59, 4-[(S)-2-{[6-((S)-3-Methoxy-pyrrolidin-1-yl)-2-phenyl-pyrimidine-4-carbonyl]-amino}-3-(4-phosphono-phenyl)-propionyl]-piperazine-1-carboxylic acid ethyl ester] registered an IC50 of 4 nM.

`CCCCOC(=O)N1CCN(C(=O)[C@H](CCC(=O)O)NC(=O)c2cc(N3CC[C@H](OC)C3)nc(-c3ccccc3)n2)CC1` [reference compound] showed an IC50 of 21 nM.

The molecule `CCOC(=O)N1CCN(C(=O)[C@H](CCC(=O)O)NC(=O)c2cc(N3CC[C@H](OC)C3)nc(-c3ccccc3)n2)CC1` [reference compound] gave an IC50 of 32 nM.

With `CCCCOC(=O)N1CCN(C(=O)[C@H](CC(=O)O)NC(=O)c2cc(N3CC[C@H](OC)C3)nc(-c3ccccc3)n2)CC1` [reference compound], the IC50 was determined as 91 nM.

Turning to `CCOC(=O)N1CCN(C(=O)[C@H](Cc2ccc(C(=O)O)cc2)NC(=O)c2cc(N3CC[C@H](OC)C3)nc(-c3ccccc3)n2)CC1` [reference compound], half-maximal inhibition (IC50) required 226 nM.

Consider `CCOC(=O)N1CCN(C(=O)[C@H](CC(=O)O)NC(=O)c2cc(N3CC[C@H](OC)C3)nc(-c3ccccc3)n2)CC1` [reference compound], for which the midpoint of inhibition, the IC50, lay at 138 nM.

In another assay the target is T1, human P2Y12 receptor (Homo sapiens, UniProt Q9H244).
T1 construct: expressed in transfected cells; host or cells: Chinese Hamster Ovary (CHO) cells
T1 sequence (Q9H244 whole entry): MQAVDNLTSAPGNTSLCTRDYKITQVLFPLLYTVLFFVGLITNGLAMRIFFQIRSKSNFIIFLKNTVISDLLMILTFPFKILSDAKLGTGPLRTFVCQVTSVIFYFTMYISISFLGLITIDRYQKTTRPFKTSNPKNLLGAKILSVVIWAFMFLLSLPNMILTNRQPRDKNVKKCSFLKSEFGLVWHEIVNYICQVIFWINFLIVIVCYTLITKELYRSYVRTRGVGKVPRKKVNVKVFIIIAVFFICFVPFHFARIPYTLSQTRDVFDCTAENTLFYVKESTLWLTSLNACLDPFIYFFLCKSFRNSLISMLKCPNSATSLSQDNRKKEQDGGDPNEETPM
The assay can be described thus: P2Y12 receptor binding assay. The following applies: CHO cells with recombinant human P2Y12 receptor; tritium-labeled 2-methyl-S-ADP; 2 hours at RT. On the procedure:
Chinese Hamster Ovary (CHO) cells with recombinant expression of the human P2Y12 receptor were cultured in 24 well cell-culture plates. Cells were washed three times with binding buffer (50 mM Tris pH 7.4, 100 mM NaCl, […], 0.5% BSA). The cells were then incubated with 0.5 ml per well binding buffer containing tritium-labeled 2-methyl-thio-adenosine 5′-diphosphate (2-methyl-S-ADP) (between 100,000 and 300,000 dpm per well) and various concentrations of test compounds. After incubation at RT for 2 hours, cells were washed three times with binding buffer. Then, cells were solubilized by addition of 0.5 ml solubilization buffer (SDS, NaOH, EDTA). The content of each well was then transferred into beta-counter vials and 2.0 ml of Ultima Gold Scintillation liquid was added.
Regarding `CCOC(=O)N1CCN(C(=O)[C@H](CP(=O)(OCOC(C)=O)OCOC(C)=O)NC(=O)c2cc(N3CC[C@H](OC)C3)nc(-c3ccccc3)n2)CC1` [Example 120, 4-((R)-3-[Bis-(acetoxy-methoxy)-phosphoryl]-2-{[6-((S)-3-methoxy-pyrrolidin-1-yl)-2-phenyl-pyrimidine-4-carbonyl]-amino}-propionyl)-piperazine-1-carboxylic acid ethyl ester], the IC50 was 7 nM.

For the molecule `CCCC(=O)OCOP(=O)(OCOC(=O)CCC)c1ccc(C[C@H](NC(=O)c2cc(N3CC[C@H](OC)C3)nc(-c3ccccc3)n2)C(=O)N2CCN(C(=O)OCC)CC2)cc1` [Example 124, 4-((S)-3-[4-(Bis-(butyryloxy-methoxy)-phosphoryl)-phenyl]-2-{[6-((S)-3-methoxy-pyrrolidin-1-yl)-2-phenyl-pyrimidine-4-carbonyl]-amino}-propionyl)-piperazine-1-carboxylic acid ethyl ester], the IC50 was found to be 36 nM.

(Values after patent publication US8518912B2, “Phosphonic acid derivates and their use as P2Y12 receptor antagonists” (Actelion Pharmaceuticals Ltd., priority 2008, dated 2013).)
